Data as given in publication PMC3045627 (Journal of medicinal chemistry, 2010).
Where two headings read alike, the source gives them in different places.

Tests used:
[1] = biological target: human farnesyltransferase (hFTase) (Homo sapiens, UniProt P49354+P49356); assay: In vitro hFTase inhibition: incorporation of [3H]FPP into recombinant H-Ras-CVLS; format: biochemical; details: for selectivity (ratio of GGTase-I to FTase IC50s): GGTase-I IC50 / hFTase IC50; for fold improvement in hFTase inhibitory activity relative to 1az: relative to parent 1az
[2] = test system: farnesylation of H-Ras in oncogenic H-Ras-transformed NIH3T3 cells; assay: Whole cell inhibition of farnesylation; format: cell-based; details: Mus musculus

Cn1cnc(S(=O)(=O)N(CCN(Cc2cncn2C)c2ccc(C#N)cc2)Cc2ccncc2)c1 [1af]
selectivity (ratio of GGTase-I to FTase IC50s) [1]: >139

Cn1cnc(S(=O)(=O)N(CCN(Cc2cncn2C)c2ccc(C#N)cc2)Cc2ccsc2)c1 [1ai, [N-(Thiophen-3-ylmethyl), N-{2-[(4-Cyanophenyl)-(3-methyl-3H-imidazol-4-ylmethyl)-amino]-ethyl}] 1-Methyl-1H-imidazole-4-sulfonamide]
times as potent against hFTase as isomeric 1ak ([1]; relative to 1ak): more than 34 times

Cc1c(CN(CCN(Cc2cncn2C)c2ccc(C#N)cc2)S(=O)(=O)c2cn(C)cn2)cnn1C [1an, [N-(1,3,5-Trimethyl-1H-pyrazol-4-ylmethyl), N-{2-[(4-Cyanophenyl)-(3-methyl-3H-imidazol-4-ylmethyl)-amino]-ethyl}] 1-Methyl-1H-imidazole-4-sulfonamide]
selectivity (ratio of GGTase-I to FTase IC50s) [1]: >1.9

Cn1cnc(S(=O)(=O)N(CCN(Cc2cncn2C)c2ccc(C#N)cc2)Cc2ccc(-n3cccc3)cc2)c1 [1av]
fold improvement of in vitro hFTase inhibition relative to 1au ([1]; relative to 1au): approximately 4 fold

Cn1cnc(S(=O)(=O)N(CCN(Cc2cncn2C)c2ccc(C#N)cc2)CC2CCCCC2)c1 [1ax]
IC50 ([2]; NIH3T3, read-out: processing IC50 (μM) H-Ras): 0.1 ± 0.07 µM
IC50 ([2]; NIH3T3, read-out: whole cell H-Ras processing IC50): ~0.09 µM
GGTase-I/FTase selectivity ([1]; selectivity for hFTase over GGTase-I): about 9 fold

Cn1cnc(S(=O)(=O)N(CCN(Cc2cncn2C)c2ccc(C#N)cc2)CC2CCN(C(=O)OC(C)(C)C)CC2)c1 [1ay]
fold drop in hFTase inhibition relative to 1ax ([1]; relative to 1ax): > 60 fold

Cn1cnc(S(=O)(=O)N(CCN(Cc2cncn2C)c2ccc(C#N)cc2)CC2CCN(c3ncccn3)CC2)c1 [1az]
fold recovery of hFTase activity relative to 1ay ([1]; relative to 1ay): more than 7 fold

Cn1cnc(S(=O)(=O)N(CCN(Cc2cncn2C)c2ccc(C#N)cc2Cl)CC2CCN(c3ncccn3)CC2)c1 [19a, [N-{2-[(2-Chloro-4-cyanophenyl)-(3-methyl-3H-imidazol-4-ylmethyl)-amino]-ethyl}, N-{N-(2-Pyrimidinyl)-piperidin-4-ylmethyl}] 1-Methyl-1H-imidazole-4-sulfonamide]
selectivity (ratio of GGTase-I to FTase IC50s) [1]: >18

Cn1cnc(S(=O)(=O)N(CCN(Cc2cncn2C)c2ccc(C#N)nc2)CC2CCN(c3ncccn3)CC2)c1 [19b, N-(2-((2-Cyanopyridin-5-yl)((1-methyl-1H-imidazol-5-yl)methyl)-amino)ethyl)-1-methyl-N-((1-(pyrimidin-2-yl)piperidin-4-yl)methyl)-1H-imidazole-4-sulfonamide]
selectivity (ratio of GGTase-I to FTase IC50s) [1]: >19

Cn1cnc(S(=O)(=O)N(CCN(Cc2cncn2C)c2ccc(C#N)c(F)c2)CC2CCN(c3ncccn3)CC2)c1 [19e, [N-{2-[(3-Fluoro-4-cyanophenyl)-(3-methyl-3H-imidazol-4-ylmethyl)-amino]-ethyl}, N-{N-(2-Pyrimidinyl)-piperidin-4-ylmethyl}] 1-Methyl-1H-imidazole-4-sulfonamide]
fold improvement in hFTase inhibitory activity relative to 1az [1]: 2 fold

Cn1cnc(S(=O)(=O)N(CCN(Cc2cncn2C)c2ccc(C#N)cc2F)CC2CCN(c3ncccn3)CC2)c1 [19f, [N-{2-[(2-Fluoro-4-cyanophenyl)-(3-methyl-3H-imidazol-4-ylmethyl)-amino]-ethyl}, N-{N-(2-Pyrimidinyl)-piperidin-4-ylmethyl}] 1-Methyl-1H-imidazole-4-sulfonamide]
fold improvement in hFTase inhibitory activity relative to 1az [1]: approximately 8 fold

Cn1cnc(S(=O)(=O)N(CCCN(Cc2cncn2C)c2ccc(C#N)cc2)Cc2ccccc2)c1 [20a]
fold drop in hFTase inhibitory activity relative to 1a ([1]; relative to 1a): > 7 fold
